From the kinase profiling compilation of Christmann-Franck et al. (2016)

Columns and labels:
Assay in all cases: KINOMEscan competition binding
Conditions in all cases: compound 10.0 µM
YES1 (human) = YES1 (human) (UniProt P07947)
NEK2 (human) = NEK2 (human) (UniProt P51955)
CSNK1G2 (human) = CSNK1G2 (human) (UniProt P78368)
CLK3 (human) = CLK3 (human) (UniProt P49761)
AKT1 (human) = AKT1 (human) (UniProt P31749)
CDK9 (human) = CDK9 (human) (UniProt P50750)
CDK7 (human) = CDK7 (human) (UniProt P50613)
MET (human) = MET (human) (UniProt P08581)
CDKL1 (human) = CDKL1 (human) (UniProt Q00532)
MAPK9 (human) = MAPK9 (human) (UniProt P45984)
RIOK1 (human) = RIOK1 (human) (UniProt Q9BRS2)
TAOK2 (human) = TAOK2 (human) (UniProt Q9UL54)
HUNK (human) = HUNK (human) (UniProt P57058)
CDK2 (human) = CDK2 (human) (UniProt P24941)
FGR (human) = FGR (human) (UniProt P09769)
MAP3K5 (human) = MAP3K5 (human) (UniProt Q99683)
Chain of MAP3K5 (human) (Q99683 whole entry, looked up): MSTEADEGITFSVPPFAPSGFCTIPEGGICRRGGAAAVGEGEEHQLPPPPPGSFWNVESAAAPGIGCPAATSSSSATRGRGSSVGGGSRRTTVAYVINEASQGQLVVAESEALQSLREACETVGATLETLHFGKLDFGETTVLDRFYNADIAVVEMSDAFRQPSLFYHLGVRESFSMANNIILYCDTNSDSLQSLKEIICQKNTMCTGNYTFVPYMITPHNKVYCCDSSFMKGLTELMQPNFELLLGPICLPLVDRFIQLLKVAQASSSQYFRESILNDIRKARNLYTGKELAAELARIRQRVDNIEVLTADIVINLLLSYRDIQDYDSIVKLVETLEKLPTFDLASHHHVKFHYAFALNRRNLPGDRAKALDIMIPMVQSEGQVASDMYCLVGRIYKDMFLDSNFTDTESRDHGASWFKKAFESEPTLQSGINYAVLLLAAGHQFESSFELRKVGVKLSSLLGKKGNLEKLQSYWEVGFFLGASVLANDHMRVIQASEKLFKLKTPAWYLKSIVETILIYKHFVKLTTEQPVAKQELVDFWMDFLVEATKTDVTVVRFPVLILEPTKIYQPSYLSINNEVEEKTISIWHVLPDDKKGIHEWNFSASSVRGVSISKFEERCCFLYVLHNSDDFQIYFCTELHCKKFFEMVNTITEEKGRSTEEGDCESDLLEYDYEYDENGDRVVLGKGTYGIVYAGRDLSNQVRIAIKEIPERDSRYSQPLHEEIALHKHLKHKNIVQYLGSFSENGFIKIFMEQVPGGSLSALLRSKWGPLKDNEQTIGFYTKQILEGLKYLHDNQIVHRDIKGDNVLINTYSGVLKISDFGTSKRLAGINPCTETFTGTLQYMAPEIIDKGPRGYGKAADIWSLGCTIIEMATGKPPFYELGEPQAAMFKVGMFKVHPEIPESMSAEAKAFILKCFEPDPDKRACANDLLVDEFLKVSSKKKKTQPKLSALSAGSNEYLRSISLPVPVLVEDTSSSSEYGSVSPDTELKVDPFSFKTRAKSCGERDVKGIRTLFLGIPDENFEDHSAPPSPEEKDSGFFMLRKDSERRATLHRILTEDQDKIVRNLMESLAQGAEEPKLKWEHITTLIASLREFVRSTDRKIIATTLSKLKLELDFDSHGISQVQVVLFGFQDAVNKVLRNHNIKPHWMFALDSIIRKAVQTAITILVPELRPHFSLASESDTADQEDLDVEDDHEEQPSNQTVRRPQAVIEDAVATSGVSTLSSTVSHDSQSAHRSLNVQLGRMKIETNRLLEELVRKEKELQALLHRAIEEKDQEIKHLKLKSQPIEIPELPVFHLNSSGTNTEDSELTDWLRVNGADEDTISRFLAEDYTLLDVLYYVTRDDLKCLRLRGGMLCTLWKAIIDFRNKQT

PTK2 (human) = PTK2 (human) (UniProt Q05397)
TLK2 (human) = TLK2 (human) (UniProt Q86UE8)
PRKCI (human) = PRKCI (human) (UniProt P41743)
NUAK1 (human) = NUAK1 (human) (UniProt O60285)
RIPK2 (human) = RIPK2 (human) (UniProt O43353)
PIM1 (human) = PIM1 (human) (UniProt P11309)
NEK7 (human) = NEK7 (human) (UniProt Q8TDX7)
YSK4 (human) = YSK4 (human) (UniProt Q56UN5)
ITK (human) = ITK (human) (UniProt Q08881)
MAP3K3 (human) = MAP3K3 (human) (UniProt Q99759)
Chain of MAP3K3 (human) (Q99759 whole entry, looked up): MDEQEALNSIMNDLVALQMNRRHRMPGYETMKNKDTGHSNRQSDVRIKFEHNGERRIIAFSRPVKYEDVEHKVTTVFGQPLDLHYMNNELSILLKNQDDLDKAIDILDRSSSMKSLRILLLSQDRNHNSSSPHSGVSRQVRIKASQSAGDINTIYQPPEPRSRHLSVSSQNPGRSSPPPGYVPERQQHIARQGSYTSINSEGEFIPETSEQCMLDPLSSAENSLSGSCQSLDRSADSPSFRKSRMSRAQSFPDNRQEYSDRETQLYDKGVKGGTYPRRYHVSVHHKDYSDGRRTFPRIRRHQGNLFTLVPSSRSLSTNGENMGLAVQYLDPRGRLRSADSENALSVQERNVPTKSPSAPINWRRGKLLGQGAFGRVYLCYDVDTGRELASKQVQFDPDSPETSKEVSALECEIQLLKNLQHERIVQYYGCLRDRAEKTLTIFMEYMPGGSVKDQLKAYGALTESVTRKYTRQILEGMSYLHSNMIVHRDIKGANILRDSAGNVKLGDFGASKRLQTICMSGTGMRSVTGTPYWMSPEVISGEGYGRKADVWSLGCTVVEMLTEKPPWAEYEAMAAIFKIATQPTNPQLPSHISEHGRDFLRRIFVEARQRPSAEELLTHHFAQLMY

RET (human) = RET (human) (UniProt P07949)
PRKG2 (human) = PRKG2 (human) (UniProt Q13237)
MYLK2 (human) = MYLK2 (human) (UniProt Q9H1R3)
Chain of MYLK2 (human) (Q9H1R3 whole entry, looked up): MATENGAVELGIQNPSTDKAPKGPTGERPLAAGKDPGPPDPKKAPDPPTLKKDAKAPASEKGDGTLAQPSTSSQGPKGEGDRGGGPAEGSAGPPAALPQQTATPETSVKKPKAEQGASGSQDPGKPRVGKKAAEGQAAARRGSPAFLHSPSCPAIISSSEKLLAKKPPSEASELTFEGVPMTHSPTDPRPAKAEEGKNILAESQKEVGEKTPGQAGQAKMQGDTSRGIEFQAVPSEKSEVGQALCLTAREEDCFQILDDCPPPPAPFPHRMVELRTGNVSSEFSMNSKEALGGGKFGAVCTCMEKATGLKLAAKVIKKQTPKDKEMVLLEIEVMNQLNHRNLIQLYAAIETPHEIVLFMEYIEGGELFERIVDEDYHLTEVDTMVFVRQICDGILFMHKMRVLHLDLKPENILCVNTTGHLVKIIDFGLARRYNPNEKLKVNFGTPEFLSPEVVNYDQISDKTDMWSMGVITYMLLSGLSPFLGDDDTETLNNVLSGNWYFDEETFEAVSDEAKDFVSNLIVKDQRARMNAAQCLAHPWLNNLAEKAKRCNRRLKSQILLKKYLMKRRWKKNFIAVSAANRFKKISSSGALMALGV

CAMK2G (human) = CAMK2G (human) (UniProt Q13555)
IRAK3 (human) = IRAK3 (human) (UniProt Q9Y616)
ERBB2 (human) = ERBB2 (human) (UniProt P04626)
INSRR (human) = INSRR (human) (UniProt P14616)
PIK3CA (human) = PIK3CA (human) (UniProt P42336)
PRKCQ (human) = PRKCQ (human) (UniProt Q04759)
Chain of PRKCQ (human) (Q04759 whole entry, looked up): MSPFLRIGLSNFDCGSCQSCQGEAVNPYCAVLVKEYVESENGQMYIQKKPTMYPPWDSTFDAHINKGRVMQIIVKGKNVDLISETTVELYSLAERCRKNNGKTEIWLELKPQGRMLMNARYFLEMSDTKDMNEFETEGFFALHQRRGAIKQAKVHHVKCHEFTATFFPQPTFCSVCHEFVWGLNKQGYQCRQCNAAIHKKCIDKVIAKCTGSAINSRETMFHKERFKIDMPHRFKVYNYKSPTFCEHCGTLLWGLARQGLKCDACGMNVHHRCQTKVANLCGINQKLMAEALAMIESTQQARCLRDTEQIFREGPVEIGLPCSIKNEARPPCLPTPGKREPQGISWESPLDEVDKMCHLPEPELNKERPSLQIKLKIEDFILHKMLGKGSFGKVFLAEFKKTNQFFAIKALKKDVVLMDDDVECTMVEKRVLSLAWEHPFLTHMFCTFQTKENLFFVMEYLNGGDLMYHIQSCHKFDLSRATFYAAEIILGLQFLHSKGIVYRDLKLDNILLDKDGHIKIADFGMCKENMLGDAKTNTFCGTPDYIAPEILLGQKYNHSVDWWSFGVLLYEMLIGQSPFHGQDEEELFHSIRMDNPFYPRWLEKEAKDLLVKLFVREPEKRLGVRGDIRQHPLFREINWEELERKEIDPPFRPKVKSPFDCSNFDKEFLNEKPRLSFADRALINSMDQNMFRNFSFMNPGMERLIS

[1] = tested on: PIK3CA (human), P42336 [M1043I]
PRKG1 (human) = PRKG1 (human) (UniProt Q13976)
Chain of PRKG1 (human) (Q13976 whole entry, looked up): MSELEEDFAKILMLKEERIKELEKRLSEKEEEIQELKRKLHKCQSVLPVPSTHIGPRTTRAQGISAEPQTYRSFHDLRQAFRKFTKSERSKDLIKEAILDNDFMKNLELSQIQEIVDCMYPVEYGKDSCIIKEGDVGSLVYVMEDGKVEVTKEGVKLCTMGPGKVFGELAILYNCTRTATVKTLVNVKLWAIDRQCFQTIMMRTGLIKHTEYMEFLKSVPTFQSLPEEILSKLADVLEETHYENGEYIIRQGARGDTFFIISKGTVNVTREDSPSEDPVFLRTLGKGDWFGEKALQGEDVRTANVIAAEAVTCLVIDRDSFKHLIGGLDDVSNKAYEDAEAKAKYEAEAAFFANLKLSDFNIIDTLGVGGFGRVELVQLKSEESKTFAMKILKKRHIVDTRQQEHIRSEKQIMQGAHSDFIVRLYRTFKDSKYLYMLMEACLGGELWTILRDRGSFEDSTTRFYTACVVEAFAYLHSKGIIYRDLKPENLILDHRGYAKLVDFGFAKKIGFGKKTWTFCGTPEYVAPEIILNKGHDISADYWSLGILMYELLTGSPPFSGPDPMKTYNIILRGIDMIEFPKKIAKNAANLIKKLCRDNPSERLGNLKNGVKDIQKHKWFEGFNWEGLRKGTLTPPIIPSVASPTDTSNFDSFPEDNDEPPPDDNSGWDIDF

ULK1 (human) = ULK1 (human) (UniProt O75385)
AAK1 (human) = AAK1 (human) (UniProt Q2M2I8)
DYRK2 (human) = DYRK2 (human) (UniProt Q92630)
Chain of DYRK2 (human) (Q92630 whole entry, looked up): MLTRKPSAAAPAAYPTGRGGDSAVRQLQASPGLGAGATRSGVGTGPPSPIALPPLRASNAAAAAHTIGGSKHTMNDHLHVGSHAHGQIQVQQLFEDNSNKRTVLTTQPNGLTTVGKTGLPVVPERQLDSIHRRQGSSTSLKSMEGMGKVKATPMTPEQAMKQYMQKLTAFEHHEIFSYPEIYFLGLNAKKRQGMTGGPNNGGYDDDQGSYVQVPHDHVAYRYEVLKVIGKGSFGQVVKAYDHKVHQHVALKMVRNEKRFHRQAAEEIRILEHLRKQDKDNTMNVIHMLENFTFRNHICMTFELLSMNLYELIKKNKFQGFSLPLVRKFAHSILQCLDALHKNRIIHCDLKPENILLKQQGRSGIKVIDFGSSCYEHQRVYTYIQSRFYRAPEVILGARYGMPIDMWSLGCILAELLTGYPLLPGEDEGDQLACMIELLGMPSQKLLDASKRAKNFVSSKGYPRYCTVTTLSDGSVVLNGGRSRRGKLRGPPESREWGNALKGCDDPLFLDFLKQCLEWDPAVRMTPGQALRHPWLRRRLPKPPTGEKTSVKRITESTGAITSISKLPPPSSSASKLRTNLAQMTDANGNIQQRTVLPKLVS

CDK3 (human) = CDK3 (human) (UniProt Q00526)

Chain of NEK2 (human) (P51955 whole entry, looked up): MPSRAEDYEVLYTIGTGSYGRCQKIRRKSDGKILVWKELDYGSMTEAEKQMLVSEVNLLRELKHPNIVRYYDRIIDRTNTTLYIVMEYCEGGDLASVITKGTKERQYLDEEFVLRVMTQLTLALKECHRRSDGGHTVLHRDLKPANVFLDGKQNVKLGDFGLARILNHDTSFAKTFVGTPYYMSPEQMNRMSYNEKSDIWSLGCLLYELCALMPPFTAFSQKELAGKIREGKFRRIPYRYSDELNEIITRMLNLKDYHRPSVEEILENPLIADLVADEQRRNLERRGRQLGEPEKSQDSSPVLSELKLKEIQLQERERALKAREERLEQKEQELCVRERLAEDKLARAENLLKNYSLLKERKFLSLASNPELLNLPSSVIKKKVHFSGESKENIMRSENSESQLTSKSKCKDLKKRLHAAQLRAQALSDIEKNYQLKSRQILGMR

## N#Cc1cc(-c2ccnc(Nc3ccc(-n4cnc(-c5cccnc5)n4)cc3)n2)cc(N2CCOCC2)c1
YES1 (human)
  kinase still bound, per cent of control: 79%
NEK2 (human)
  kinase still bound, per cent of control: 94%
CSNK1G2 (human)
  kinase still bound, per cent of control: 72%
CLK3 (human)
  kinase still bound, per cent of control: 59%
AKT1 (human)
  kinase still bound, per cent of control: 100%
CDK9 (human)
  kinase still bound, per cent of control: 2.1%
CDK7 (human)
  kinase still bound, per cent of control: 1.2%
MET (human)
  kinase still bound, per cent of control: 24%
CDKL1 (human)
  kinase still bound, per cent of control: 34%
MAPK9 (human)
  kinase still bound, per cent of control: 0.1%
RIOK1 (human)
  kinase still bound, per cent of control: 3.8%
TAOK2 (human)
  kinase still bound, per cent of control: 37%
HUNK (human)
  kinase still bound, per cent of control: 42%
CDK2 (human)
  kinase still bound, per cent of control: 30%
FGR (human)
  kinase still bound, per cent of control: 54%
MAP3K5 (human)
  kinase still bound, per cent of control: 100%
PTK2 (human)
  kinase still bound, per cent of control: 77%
TLK2 (human)
  kinase still bound, per cent of control: 65%
PRKCI (human)
  kinase still bound, per cent of control: 88%
NUAK1 (human)
  kinase still bound, per cent of control: 100%
RIPK2 (human)
  kinase still bound, per cent of control: 53%
PIM1 (human)
  kinase still bound, per cent of control: 78%
NEK7 (human)
  kinase still bound, per cent of control: 45%
YSK4 (human)
  kinase still bound, per cent of control: 0.25%
ITK (human)
  kinase still bound, per cent of control: 100%
MAP3K3 (human)
  kinase still bound, per cent of control: 30%
RET (human)
  kinase still bound, per cent of control: 100%
PRKG2 (human)
  kinase still bound, per cent of control: 74%
MYLK2 (human)
  kinase still bound, per cent of control: 56%
CAMK2G (human)
  kinase still bound, per cent of control: 32%
IRAK3 (human)
  kinase still bound, per cent of control: 12%
ERBB2 (human)
  kinase still bound, per cent of control: 100%
INSRR (human)
  kinase still bound, per cent of control: 68%
PIK3CA (human)
  kinase still bound, per cent of control: 100%
PRKCQ (human)
  kinase still bound, per cent of control: 100%
[1]
  kinase still bound, per cent of control: 100%
PRKG1 (human)
  kinase still bound, per cent of control: 100%
ULK1 (human)
  kinase still bound, per cent of control: 37%
AAK1 (human)
  kinase still bound, per cent of control: 5.4%
DYRK2 (human)
  kinase still bound, per cent of control: 39%
CDK3 (human)
  kinase still bound, per cent of control: 45%

## C=CC(=O)Nc1ccc(C(=O)c2sc(Nc3ccc(N4CCN(C)CC4)cc3OC)nc2N)cc1
YES1 (human)
  kinase still bound, per cent of control: 86%
NEK2 (human)
  kinase still bound, per cent of control: 100%
CSNK1G2 (human)
  kinase still bound, per cent of control: 25%
CLK3 (human)
  kinase still bound, per cent of control: 8.9%
AKT1 (human)
  kinase still bound, per cent of control: 100%
CDK9 (human)
  kinase still bound, per cent of control: 85%
CDK7 (human)
  kinase still bound, per cent of control: 5.8%
MET (human)
  kinase still bound, per cent of control: 83%
CDKL1 (human)
  kinase still bound, per cent of control: 100%
MAPK9 (human)
  kinase still bound, per cent of control: 7%
RIOK1 (human)
  kinase still bound, per cent of control: 37%
TAOK2 (human)
  kinase still bound, per cent of control: 20%
HUNK (human)
  kinase still bound, per cent of control: 33%
CDK2 (human)
  kinase still bound, per cent of control: 75%
FGR (human)
  kinase still bound, per cent of control: 91%
MAP3K5 (human)
  kinase still bound, per cent of control: 100%
PTK2 (human)
  kinase still bound, per cent of control: 51%
TLK2 (human)
  kinase still bound, per cent of control: 83%
PRKCI (human)
  kinase still bound, per cent of control: 26%
NUAK1 (human)
  kinase still bound, per cent of control: 100%
RIPK2 (human)
  kinase still bound, per cent of control: 100%
PIM1 (human)
  kinase still bound, per cent of control: 90%
NEK7 (human)
  kinase still bound, per cent of control: 100%
YSK4 (human)
  kinase still bound, per cent of control: 70%
ITK (human)
  kinase still bound, per cent of control: 74%
MAP3K3 (human)
  kinase still bound, per cent of control: 65%
RET (human)
  kinase still bound, per cent of control: 100%
PRKG2 (human)
  kinase still bound, per cent of control: 81%
MYLK2 (human)
  kinase still bound, per cent of control: 66%
CAMK2G (human)
  kinase still bound, per cent of control: 1.6%
IRAK3 (human)
  kinase still bound, per cent of control: 96%
ERBB2 (human)
  kinase still bound, per cent of control: 77%
INSRR (human)
  kinase still bound, per cent of control: 78%
PIK3CA (human)
  kinase still bound, per cent of control: 95%
PRKCQ (human)
  kinase still bound, per cent of control: 93%
[1]
  kinase still bound, per cent of control: 100%
PRKG1 (human)
  kinase still bound, per cent of control: 74%
ULK1 (human)
  kinase still bound, per cent of control: 5.1%
AAK1 (human)
  kinase still bound, per cent of control: 11%
DYRK2 (human)
  kinase still bound, per cent of control: 4.2%
CDK3 (human)
  kinase still bound, per cent of control: 88%
